Where two headings read alike, the source gives them in different places.
Columns and labels:
[1] = tested on: A/Mississippi H1N1 (A/Mississippi/3/01); experiment: microbe, parasite or virus in culture; assay type: cell-based; conditions: read-out: IC50 in the plaque size reduction assay, A/Mississippi H1N1
B/Perth (B/Perth/211/01) = experiment: microbe, parasite or virus in culture; assay type: cell-based; conditions: read-out: IC50 in the plaque size reduction assay, B/Perth
[2] = target: California H1N1 (A/California/07/09) neuraminidase (Influenza A virus, UniProt C3W6G3)
A/Fukui H3N2 = experiment: microbe, parasite or virus in culture; assay type: cell-based; conditions: read-out: IC50 in the plaque size reduction assay, A/Fukui H3N2
[3] = target: B/Perth wt (B/Perth/211/01) NA (Influenza B virus, UniProt Q3S340); assay type: biochemical
[4] = target: Brisbane H1N1 (A/Brisbane/59/07) neuraminidase (Influenza A virus, UniProt D5F1R0)
[5] = target: Hong Kong H3N2 (A/HongKong/01/68) neuraminidase (Influenza A virus, UniProt Q91MA2); experiment: biochemical
Human Neu2 = Human Neu2 (Homo sapiens, UniProt Q9Y3R4); experiment: Time-dependent inactivation of human Neu2; assay type: biochemical; conditions: 1 mM inactivator, 27° C., pH 5.6
Experimental: All experiments were carried out in a 100 mM Na2HPO4/50 mM Citric acid buffer, pH 5.6. […] The data were analyzed using the program GraFit 4.0 (Erithacus software) (R. Leatherbarrow, Erithacus Software Ltd., 4th Edition, Staines, UK, (1990)). […] Residual enzyme activity was determined at appropriate time intervals by the addition of an aliquot of the inactivation mixture to an assay buffer solution containing 8 mM 4-trifluoromethylumbelliferyl sialic acid (CF3MUSA). The initial linear increase in absorbance at 400 nm was used as a measure of the enzyme activity. These initial rates at each time point were plotted as a function of time to obtain time-dependent exponential decay curves from which ki obs could be obtained using the equation: (rate)t=(rate)t=0e^([…])+offset IC50 Enzyme Inhibition Assays

[6] = mouse, in vivo
in vivo = conditions: Balb/c, mouse, 1 mg/kg
A/Fukui H3N2 wt NA = A/Fukui H3N2 wt NA (Influenza A virus, UniProt A0A0F6NYK2); assay type: biochemical; conditions: read-out: IC50 in the enzyme inhibition assay, A/Fukui H3N2
[7] = target: B/Florida wt (B/Florida/4/2006) NA (Influenza B virus, UniProt J7JZT1); assay type: biochemical
[8] = target: Sol Isl sH1N1 wt (A/Solomon Islands/3/2006) NA (Influenza A virus, UniProt B4URD9); assay type: biochemical
[9] = target: sH1N1/01 wt (A/Mississippi/3/01 H1N1) NA (Influenza A virus, UniProt Q3M0T6); assay type: biochemical
[10] = read-out: IC50 in the enzyme inhibition assay, B/Perth

Chain of Human Neu2 (Q9Y3R4 whole entry): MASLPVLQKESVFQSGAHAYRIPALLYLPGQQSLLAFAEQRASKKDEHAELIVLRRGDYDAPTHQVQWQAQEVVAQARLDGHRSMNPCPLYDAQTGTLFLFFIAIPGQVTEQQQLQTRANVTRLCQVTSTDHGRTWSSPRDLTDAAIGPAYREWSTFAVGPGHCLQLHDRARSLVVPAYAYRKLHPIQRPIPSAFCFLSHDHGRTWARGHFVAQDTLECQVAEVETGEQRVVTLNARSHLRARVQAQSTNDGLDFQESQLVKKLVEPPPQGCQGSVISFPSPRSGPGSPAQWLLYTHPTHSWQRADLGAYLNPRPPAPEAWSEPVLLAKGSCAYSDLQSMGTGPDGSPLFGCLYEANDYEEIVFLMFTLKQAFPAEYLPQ

`CC(=O)NC1C(N)C(F)C(F)(C(=O)O)OC1[C@H](O)[C@H](O)CO` (stereo in doubt) [FeqAmDFSA, 5-Acetamido-2,4,5-trideoxy-4-amino-2α, 3β-difluoro-α-D-erythro-L-gluco-nonulo-pyranosonate] showed an IC50 ([1]; Influenza A virus, H1N1, MDCK) of 0.1 µM, an IC50 (B/Perth (B/Perth/211/01); Influenza B virus, MDCK) of 0.01 to 0.1 µM and a Ki [2] of 0.37 µM. For the same molecule, the khyd [2] was 0.0027 0.0059 0.0150 0.0140 0.0045 min^−1, the “t1/2 (inac)” value [2] was 0.9 0.2 0.4 0.8 — min and the “t1/2 (reac)” value [2] was 256 117 46 49 153 min. For the same molecule, the IC50 (A/Fukui H3N2; Influenza A virus, H3N2, MDCK) was 1 µM, the IC50 [3, 10] was 0.0054 µM and the khyd [4] was 0.0027 0.0059 0.0150 0.0140 0.0045 min^−1. For the same molecule, the “t1/2 (inac)” value [4] was 0.9 0.2 0.4 0.8 — min and the “t1/2 (reac)” value [4] was 256 117 46 49 153 min.
In the case of `CC(=O)NC1C(NC(=N)N)C(F)C(F)(C(=O)O)OC1[C@H](O)[C@H](O)CO` (stereo in doubt) [FeqGuDFSA, 5-Acetamido-2,4,5-trideoxy-2α, 3β-difluoro-4-guanidino-α-D-erythro-L-gluco-nonulopyranosonate], the IC50 ([1]; Influenza A virus, H1N1, MDCK) is reported as 0.001 µM, the IC50 (B/Perth (B/Perth/211/01); Influenza B virus, MDCK) is reported as 0.001 µM and the Ki [2] is reported as 0.1 µM. For the same molecule, the khyd [2] was 0.0005 0.0015 0.001 0.0019 0.0005 min^−1, the “t1/2 (inac)” value [2] was 0.3 0.5 0.9 0.5 0.8 min and the “t1/2 (reac)” value [2] was 1380 460 690 363 1380 min. The IC50 (A/Fukui H3N2; Influenza A virus, H3N2, MDCK) was 0.01 µM, the IC50 ([3]; read-out: IC50 B/Perth wt) was 0.0045 µM and the IC50 [3, 10] was 0.0045 µM. The khyd [4] was 0.0005 0.0015 0.001 0.0019 0.0005 min^−1, the “t1/2 (inac)” value [4] was 0.3 0.5 0.9 0.5 0.8 min and the “t1/2 (reac)” value [4] was 1380 460 690 363 1380 min. The Ki [5] was 0.15 µM and the “inactivation of Neu2” value (Human Neu2) was “occurred slowly”.
In the case of `CC(=O)N[C@H]1C([C@H](O)[C@H](O)CO)O[C@@](F)(C(=O)O)C(F)[C@H]1O` (stereo partly drawn) [DFSA, 5-Acetamido-5-deoxy-3-fluoro-D-erythro-β-L-manno-2-nonulopyranosonic acid fluoride], the IC50 ([1]; Influenza A virus, H1N1, MDCK) is reported as 1 µM, the IC50 (B/Perth (B/Perth/211/01); Influenza B virus, MDCK) is reported as 1 µM and the IC50 (A/Fukui H3N2; Influenza A virus, H3N2, MDCK) is reported as 100 µM. The IC50 [3, 10] was 0.07 µM.
In the case of `CC(=O)N[C@@H]1C(N)C(F)[C@](F)(C(=O)O)OC1[C@H](O)[C@H](O)CO` (some centres unmarked) [FaxAmDFSA], the IC50 ([1]; Influenza A virus, H1N1, MDCK) is reported as 0.1 µM, the IC50 (B/Perth (B/Perth/211/01); Influenza B virus, MDCK) is reported as 0.1 µM and the Ki [2] is reported as 4.28 µM. For the same molecule, the khyd [2] was 0.0001 0.0002 0.0001 0.0003 <0.0001 min^−1, the “t1/2 (inac)” value [2] was 2.1 2.5 1.7 4.0 20.8 min and the “t1/2 (reac)” value [2] was 6900 3450 6900 2300 >6900 min. The IC50 (A/Fukui H3N2; Influenza A virus, H3N2, MDCK) was 1 µM, the IC50 [3, 10] was 0.21 µM and the khyd [4] was 0.0001 0.0002 0.0001 0.0003 <0.0001 min^−1. The “t1/2 (inac)” value [4] was 2.1 2.5 1.7 4.0 20.8 min, the “t1/2 (reac)” value [4] was 6900 3450 6900 2300 >6900 min and the Ki [5] was 0.24 µM.
With `CC(=O)N[C@@H]1C(NC(=N)N)C(F)[C@](F)(C(=O)O)OC1[C@H](O)[C@H](O)CO` (some centres unmarked) [FaxGuDFSA] the IC50 ([1]; Influenza A virus, H1N1, MDCK) was 0.01 µM, the “plasma half-life after intranasal administration vs IV injection” value [6] was “significantly longer” and the IC50 (B/Perth (B/Perth/211/01); Influenza B virus, MDCK) was 0.01 to 0.1 µM. For the same molecule, the bioavailability (in vivo) was 92%, the Ki [2] was 0.35 µM and the khyd [2] was <0.0001 <0.0001 <0.0001 <0.0001 <0.000l min^−1. For the same molecule, the “t1/2 (inac)” value [2] was 7.4 9.2 20.9 6.8 20.2 min, the “t1/2 (reac)” value [2] was >6900 >6900 >6900 >6900 >6900 min and the IC50 (A/Fukui H3N2; Influenza A virus, H3N2, MDCK) was 0.1 µM. The IC50 ([3]; read-out: IC50 B/Perth wt) was 0.054 µM, the IC50 [3, 10] was 0.054 µM and the khyd [4] was <0.0001 <0.0001 <0.0001 <0.0001 <0.000l min^−1. The “t1/2 (inac)” value [4] was 7.4 9.2 20.9 6.8 20.2 min, the “t1/2 (reac)” value [4] was >6900 >6900 >6900 >6900 >6900 min and the Ki [5] was 0.07 µM. The “inactivation of Neu2” value (Human Neu2) was “occurred slowly”.
Molecule Oseltamivir has an IC50 (A/Fukui H3N2 wt NA) of 0.0017 µM and an IC50 [7] of 0.0226 µM.
In the case of Zanamivir, the IC50 [8] is reported as 0.0022 µM, the IC50 [1] is reported as ≤ 0.001 µM and the IC50 (B/Perth (B/Perth/211/01)) is reported as 0.01 µM. For the same molecule, the IC50 ([9]; read-out: IC50 in the enzyme inhibition assay, A/Mississippi H1N1) was 0.0019 µM, the IC50 ([9]; read-out: IC50 sH1N1/01 wt) was 0.0019 µM and the IC50 (A/Fukui H3N2) was 0.1 µM.
